Assays:
[1] = target: T1, Mitogen-activated protein kinase kinase kinase kinase 1 (Homo sapiens, UniProt Q92918); test: Inhibition of HPK1 in primary human Pan T cells assessed as increase in IL-2 secretion pretreated for 30 mins followed by incubation with anti-CD3/anti-CD28 and measured after 4 hrs by MSD assay; format: cell-based, T cell
Target sequence in this assay (Q92918 whole entry): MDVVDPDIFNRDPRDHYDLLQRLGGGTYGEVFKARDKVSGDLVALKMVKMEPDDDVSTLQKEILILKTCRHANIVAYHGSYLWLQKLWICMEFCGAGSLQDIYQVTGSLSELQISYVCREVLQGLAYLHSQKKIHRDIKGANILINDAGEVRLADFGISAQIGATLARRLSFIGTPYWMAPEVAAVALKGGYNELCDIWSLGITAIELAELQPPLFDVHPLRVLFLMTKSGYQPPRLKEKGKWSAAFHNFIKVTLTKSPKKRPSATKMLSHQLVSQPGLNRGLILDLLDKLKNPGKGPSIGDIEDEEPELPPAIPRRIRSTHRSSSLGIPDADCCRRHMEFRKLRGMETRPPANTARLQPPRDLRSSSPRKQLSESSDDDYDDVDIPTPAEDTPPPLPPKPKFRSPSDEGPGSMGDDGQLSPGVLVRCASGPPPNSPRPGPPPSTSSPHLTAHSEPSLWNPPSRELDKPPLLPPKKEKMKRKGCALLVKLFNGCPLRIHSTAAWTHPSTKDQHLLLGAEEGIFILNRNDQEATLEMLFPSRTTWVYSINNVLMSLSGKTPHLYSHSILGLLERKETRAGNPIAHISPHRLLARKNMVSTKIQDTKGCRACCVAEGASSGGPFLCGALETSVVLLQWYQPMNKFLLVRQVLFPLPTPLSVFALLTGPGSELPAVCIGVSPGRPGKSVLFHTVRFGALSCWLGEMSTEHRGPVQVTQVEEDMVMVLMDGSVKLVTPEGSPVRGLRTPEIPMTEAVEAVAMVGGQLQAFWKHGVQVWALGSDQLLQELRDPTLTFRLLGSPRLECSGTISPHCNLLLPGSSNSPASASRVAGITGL

[2] = Volume of distribution at steady state in C57BL/6 mouse at 25 mg/kg, po or 1 mg/kg, iv measured for 24 hrs by LC-MS/MS analysis; format: ADME, organism-based; conditions: in vivo
[3] = Half life in Sprague-Dawley rat at 0.5 mg/kg, iv measured for 8 hrs by LC-MS/MS analysis; format: ADME, organism-based; conditions: in vivo
[4] = Clearance in Sprague-Dawley rat at 0.5 mg/kg, iv measured for 8 hrs by LC-MS/MS analysis; format: ADME, organism-based; conditions: in vivo
[5] = Oral bioavailability in C57BL/6 mouse at 25 mg/kg measured for 24 hrs by LC-MS/MS analysis; format: ADME, organism-based; conditions: mouse, in vivo, po, 25 mg/kg, 24 h, BLD = below limit of detection
[6] = target: T1, Mitogen-activated protein kinase kinase kinase kinase 1; test: Inhibition of HPK1 in human Jurkat cells assessed as inhibition of anti-CD3/anti-CD28-induced SLP76 phosporylation at Ser376 residue incubated for 30 mins by ELISA; format: cell-based
Target sequence in this assay (Q92918 whole entry): as above

[7] = Half life in C57BL/6 mouse at 25 mg/kg, po or 1 mg/kg, iv measured for 24 hrs by LC-MS/MS analysis; format: ADME, organism-based; conditions: in vivo
[8] = Apparent permeability of the compound across apical to basolateral side in dog MDCK1 cells at 10 uM by LC-MS/MS analysis; format: ADME, cell-based, Canis lupus familiaris; conditions: MDCK
[9] = Volume of distribution at steady state in Sprague-Dawley rat at 0.5 mg/kg, iv measured for 8 hrs by LC-MS/MS analysis; format: ADME, organism-based; conditions: in vivo, read-out: Vdss
[10] = target: T1, Mitogen-activated protein kinase kinase kinase kinase 1; test: Inhibition of HPK1 in primary human Pan T cells assessed as increase in IL-2 secretion pretreated for 30 mins followed by incubation with anti-CD3/anti-CD28 and measured after 4 hrs by MSD assay relative to control; format: cell-based; conditions: T cell, time 4.5 hrs
Target sequence in this assay (Q92918 whole entry, looked up): as the sequence (Q92918 whole entry) above

[11] = Inhibition of human full length HPK1-T165E/S171E mutant expressed in baculovirus expression system assessed as inhibition of SLP76 phosphorylation using biotinylated SLP76 as substrate preincubated for 30 mins followed by incubation with substrate in presence of ATP and measured for 60 mins by HTRF assay

Compound `Cc1c(N)cncc1-c1cc2cc(Nc3cc4n(n3)CC(=O)N(C)CC4)ncc2c(N)c1F` has an EC50 [1] of 11 nM, a Vdss [2] of 1.3 L/kg and a half-life [3] of 34.2 min. For the same compound, the clearance [4] was 64 mL/min/kg, the F [5] was “Bld” and the IC50 [6] was 110 nM. It also gave a half-life [7] of 15.6 min, a Papp A→B at 10 µM [8] of 0.4 ×10⁻⁶ cm/s and a Vd [9] of 2.2 L/kg.
`Cc1ccncc1-c1cc(N)c2cnc(NC(=O)[C@@H]3C[C@H]3C#N)cc2c1` gave a fold change (FC) [10] of 5 and a Ki [11] of 4.9 nM.
For `Cc1ccncc1-c1cc2cc(Nc3cnn([C@@H](C)C#N)c3)ncc2c(N)c1F`, the Ki [11] was 32 nM.

Source: ChEMBL document CHEMBL6127064, “Discovery of GNE-6893, a Potent, Selective, Orally Bioavailable Small Molecule Inhibitor of HPK1” (ACS Med Chem Lett, 2024)
